Experimental data taken from US8247211B2, “Glycopeptide antibiotics” (American Cyanamid Company, priority 2001, dated 2012).
Converted amounts (≈) assume the structure as drawn.

Columns and labels:
[1] = test system: Enterococcus faecalis (GC 6189), vancomycin resistant strain; assay: Acute lethal infection in mice (ED50); type: in vivo; conditions: female CD-1 mice, intraperitoneal challenge, intravenous dose 30 min. after infection, 7 day survival ratios
Method in brief: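 Median effective dose is calculated from 7-day survival ratios pooled across three separate tests. Mice (female CD-1) receive an intraperitoneal bacterial challenge in broth or hog gastric mucin, then intravenous drug 30 min later, five animals per dose level.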

[2] = test system: Enterococcus sp.; assay: In vitro antibacterial evaluation: minimum inhibitory concentration (MIC), broth dilution method; type: cell-based; conditions: broth dilution, 5×10^5 CFU/mL, 18 hours at 35° C.
Method in brief: (§1)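 MIC by broth dilution in Mueller-Hinton II medium following NCCLS M7-A2. Inoculum was 5×10^5 CFU/mL and antibiotic was tested over 64-0.06 μg/mL. Gram-positive panel included clinical isolates resistant to methicillin, penicillin and/or vancomycin.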

[3] = test system: Streptococcus sp.; assay: as above; type: cell-based; conditions: broth dilution, 5×10^5 CFU/mL, 18 hours at 35° C.
Method in brief: as §1

[4] = test system: Escherichia coli; assay: as above; type: cell-based; conditions: 5×10^5 CFU/mL, 18 hours at 35° C.
Method in brief: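 First, organisms are seeded at 5×10^5 CFU/mL into Muller-Hinton II […]. Next, antibiotic is applied across 64-0.06 μg/mL by broth dilution (NCCLS M7-A2). Finally, the lowest inhibitory concentration is recorded as MIC.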

[5] = test system: Staphylococcus sp.; assay: as above; type: cell-based; conditions: for MIC Staphylococcus aureus (ATCC 29213): strain ATCC 29213; for MIC Staphylococcus aureus (GC 1131): strain GC 1131; for MIC Staphylococcus aureus (GC 3051): strain GC 3051; for MIC Staphylococcus aureus (GC 3053): strain GC 3053; for MIC Staphylococcus aureus (GC 4541): strain GC 4541; for MIC Staphylococcus aureus (GC 4542): strain GC 4542; for MIC Staphylococcus aureus-SMITH (GC 4543): strain GC 4543; for MIC Staphylococcus aureus (GC 4544): strain GC 4544; for MIC Staphylococcus aureus (GC 4545): strain GC 4545; for MIC Staphylococcus haemolyticus (GC 4546): strain GC 4546; for MIC Coagulase Negative Staphylococcus (GC 4547): strain GC 4547; for MIC Coagulase Negative Staphylococcus (GC 4548): strain GC 4548; for MIC Coagulase Negative Staphylococcus (GC 4549): strain GC 4549; for MIC Coagulase Negative Staphylococcus (GC 4551): strain GC 4551; for MIC Coagulase Negative Staphylococcus (GC 6257): strain GC 6257
Method in brief: as §1

[6] = broth dilution, 18 hours at 35° C.

CCC(CC)C1OCC2OC(OC3C(CO)OC(Oc4ccc(CC5NC(=O)C(C(C)c6ccccc6)NC(=O)CNC(=O)C(CO)NC(=O)C(C(O)C6CNC(=N)N6C6OC(CO)C(O)C(O)C6O)NC(=O)C(C(O)C6CNC(=N)N6)NC5=O)cc4)C(O)C3O)C(O)C(O)C2O1 (stereo not drawn) [Example 116, Cyclo[glycyl-β-methylphenylalanyl-O-[4-O-[4,6-O-(2-ethylbutylidene)hexopyranosyl]-hexopyranosyl]tyrosyl-3-(2-iminoimidazolidin-4-yl)seryl-3-(3-hexopyranosyl-2-iminoimidazolidin-4-yl)serylseryl]]
median effective dose (ED50), Enterococcus faecalis (GC 6189) [1]: 0.46 mg/kg
MIC Enterococccus avium (GC 4558) [2]: 2 µg/mL (≈ 1.45 µM)
MIC Enterococccus faecalis (ATCC 29212) [2]: 2 µg/mL (≈ 1.45 µM)
MIC Enterococccus faecalis (GC 2691) [2]: 2 µg/mL (≈ 1.45 µM)
MIC Enterococccus faecalis (GC 3059) [2]: 2 µg/mL (≈ 1.45 µM)
MIC Enterococccus faecalis (GC 4552) [2]: 2 µg/mL (≈ 1.45 µM)
MIC Enterococccus faecalis (GC 4553) [2]: 2 µg/mL (≈ 1.45 µM)
MIC Enterococccus faecalis (GC 4554) [2]: 2 µg/mL (≈ 1.45 µM)
MIC Enterococccus faecalis (GC 6189) [2]: 2 µg/mL (≈ 1.45 µM)
MIC Enterococccus faecium (GC 2243) [2]: 2 µg/mL (≈ 1.45 µM)
MIC Enterococccus faecium (GC 4556) [2]: 2 µg/mL (≈ 1.45 µM)
MIC Enterococccus faecium (GC 4557) [2]: 2 µg/mL (≈ 1.45 µM)
MIC Enterococcus faecalis (GC 2242) [2]: 2 µg/mL (≈ 1.45 µM)
MIC Streptococcus agalactiae (GC 4564) [3]: 0.25 µg/mL (≈ 0.181 µM)
MIC Streptococcus pneumoniae (GC 1894) [3]: <0.06 µg/mL
MIC Streptococcus pneumoniae (GC 4565) [3]: <0.06 µg/mL
MIC Streptococcus pneumonine (ATCC 6301) [3]: <0.06 µg/mL
MIC Streptococcus pyogenes (GC 4563) [3]: 0.25 µg/mL (≈ 0.181 µM)
MIC Escherichia coli (ATCC 25922) [4]: 32 µg/mL (≈ 23.2 µM)
MIC Escherichia coli (GC 4559) [4]: 64 µg/mL (≈ 46.5 µM)
MIC Escherichia coli (GC 4560) [4]: 1 µg/mL (≈ 0.726 µM)
MIC Staphylococcus aureus (ATCC 29213) [5]: 1 µg/mL (≈ 0.726 µM)
MIC Staphylococcus aureus (ATCC 29213) [5, 6]: 1 µg/mL (≈ 0.726 µM)
MIC Staphylococcus aureus (GC 1131) [5]: 1 µg/mL (≈ 0.726 µM)
MIC Staphylococcus aureus (GC 1131) [5, 6]: 1 µg/mL (≈ 0.726 µM)
MIC Staphylococcus aureus (GC 3051) [5]: 1 µg/mL (≈ 0.726 µM)
MIC Staphylococcus aureus (GC 3051) [5, 6]: 1 µg/mL (≈ 0.726 µM)
MIC Staphylococcus aureus (GC 3053) [5]: 1 µg/mL (≈ 0.726 µM)
MIC Staphylococcus aureus (GC 3053) [5, 6]: 1 µg/mL (≈ 0.726 µM)
MIC Staphylococcus aureus (GC 4541) [5]: 1 µg/mL (≈ 0.726 µM)
MIC Staphylococcus aureus (GC 4541) [5, 6]: 1 µg/mL (≈ 0.726 µM)
MIC Staphylococcus aureus (GC 4542) [5]: 0.5 µg/mL (≈ 0.363 µM)
MIC Staphylococcus aureus (GC 4542) [5, 6]: 0.5 µg/mL (≈ 0.363 µM)
MIC Staphylococcus aureus-SMITH (GC 4543) ([5]; 18 hours at 35° C.): 1 µg/mL (≈ 0.726 µM)
MIC Staphylococcus aureus-SMITH (GC 4543) [5, 6]: 1 µg/mL (≈ 0.726 µM)
MIC Staphylococcus aureus (GC 4544) [5]: 1 µg/mL (≈ 0.726 µM)
MIC Staphylococcus aureus (GC 4544) [5, 6]: 1 µg/mL (≈ 0.726 µM)
MIC Staphylococcus aureus (GC 4545) [5]: 1 µg/mL (≈ 0.726 µM)
MIC Staphylococcus aureus (GC 4545) [5, 6]: 1 µg/mL (≈ 0.726 µM)
MIC Staphylococcus haemolyticus (GC 4546) [5]: 0.5 µg/mL (≈ 0.363 µM)
MIC Staphylococcus haemolyticus (GC 4546) [5, 6]: 0.5 µg/mL (≈ 0.363 µM)
MIC Coagulase Negative Staphylococcus (GC 4547) [5]: 1 µg/mL (≈ 0.726 µM)
MIC Coagulase Negative Staphylococcus (GC 4547) [5, 6]: 1 µg/mL (≈ 0.726 µM)
MIC Coagulase Negative Staphylococcus (GC 4548) [5]: 1 µg/mL (≈ 0.726 µM)
MIC Coagulase Negative Staphylococcus (GC 4548) [5, 6]: 1 µg/mL (≈ 0.726 µM)
MIC Coagulase Negative Staphylococcus (GC 4549) [5]: 1 µg/mL (≈ 0.726 µM)
MIC Coagulase Negative Staphylococcus (GC 4549) [5, 6]: 1 µg/mL (≈ 0.726 µM)
MIC Coagulase Negative Staphylococcus (GC 4551) [5]: 1 µg/mL (≈ 0.726 µM)
MIC Coagulase Negative Staphylococcus (GC 4551) [5, 6]: 1 µg/mL (≈ 0.726 µM)
MIC Coagulase Negative Staphylococcus (GC 6257) [5]: 0.5 µg/mL (≈ 0.363 µM)
MIC Coagulase Negative Staphylococcus (GC 6257) [5, 6]: 0.5 µg/mL (≈ 0.363 µM)

CC(c1ccccc1)C1NC(=O)CNC(=O)C(CO)NC(=O)C(C(O)C2CNC(=N)N2C2OC(CO)C(O)C(O)C2O)NC(=O)C(C(O)C2CNC(=N)N2)NC(=O)C(Cc2ccc(OC3OC(CO)C(OC4OC5COC(C6CCCC6)OC5C(O)C4O)C(O)C3O)cc2)NC1=O (stereo not drawn) [Example 117, Cyclo[glycyl-β-methylphenylalanyl-O-[4-O-[4,6-O-(cyclopentylethylene)hexopyranosyl]-hexopyranosyl]tyrosyl-3-(2-iminoimidazolidin-4-yl)seryl-3-(3-hexopyranosyl-2-iminoimidazolidin-4-yl)serylseryl]]
median effective dose (ED50), Enterococcus faecalis (GC 6189) [1]: 0.38 mg/kg
MIC Enterococccus avium (GC 4558) [2]: 4 µg/mL (≈ 2.91 µM)
MIC Enterococccus faecalis (ATCC 29212) [2]: 2 µg/mL (≈ 1.45 µM)
MIC Enterococccus faecalis (GC 2691) [2]: 4 µg/mL (≈ 2.91 µM)
MIC Enterococccus faecalis (GC 3059) [2]: 4 µg/mL (≈ 2.91 µM)
MIC Enterococccus faecalis (GC 4552) [2]: 4 µg/mL (≈ 2.91 µM)
MIC Enterococccus faecalis (GC 4553) [2]: 4 µg/mL (≈ 2.91 µM)
MIC Enterococccus faecalis (GC 4554) [2]: 2 µg/mL (≈ 1.45 µM)
MIC Enterococccus faecalis (GC 6189) [2]: 2 µg/mL (≈ 1.45 µM)
MIC Enterococccus faecium (GC 2243) [2]: 2 µg/mL (≈ 1.45 µM)
MIC Enterococccus faecium (GC 4556) [2]: 2 µg/mL (≈ 1.45 µM)
MIC Enterococccus faecium (GC 4557) [2]: 2 µg/mL (≈ 1.45 µM)
MIC Enterococcus faecalis (GC 2242) [2]: 2 µg/mL (≈ 1.45 µM)
MIC Streptococcus agalactiae (GC 4564) [3]: 0.25 µg/mL (≈ 0.182 µM)
MIC Streptococcus pneumoniae (GC 1894) [3]: <0.06 µg/mL
MIC Streptococcus pneumoniae (GC 4565) [3]: 0.12 µg/mL (≈ 0.0872 µM)
MIC Streptococcus pneumonine (ATCC 6301) [3]: <0.06 µg/mL
MIC Streptococcus pyogenes (GC 4563) [3]: 0.25 µg/mL (≈ 0.182 µM)
MIC Escherichia coli (ATCC 25922) [4]: 64 µg/mL (≈ 46.5 µM)
MIC Escherichia coli (GC 4559) [4]: 32 µg/mL (≈ 23.3 µM)
MIC Escherichia coli (GC 4560) [4]: 1 µg/mL (≈ 0.727 µM)
MIC Staphylococcus aureus (ATCC 29213) [5]: 1 µg/mL (≈ 0.727 µM)
MIC Staphylococcus aureus (ATCC 29213) [5, 6]: 1 µg/mL (≈ 0.727 µM)
MIC Staphylococcus aureus (GC 1131) [5]: 2 µg/mL (≈ 1.45 µM)
MIC Staphylococcus aureus (GC 1131) [5, 6]: 2 µg/mL (≈ 1.45 µM)
MIC Staphylococcus aureus (GC 3051) [5]: 1 µg/mL (≈ 0.727 µM)
MIC Staphylococcus aureus (GC 3051) [5, 6]: 1 µg/mL (≈ 0.727 µM)
MIC Staphylococcus aureus (GC 3053) [5]: 2 µg/mL (≈ 1.45 µM)
MIC Staphylococcus aureus (GC 3053) [5, 6]: 2 µg/mL (≈ 1.45 µM)
MIC Staphylococcus aureus (GC 4541) [5]: 1 µg/mL (≈ 0.727 µM)
MIC Staphylococcus aureus (GC 4541) [5, 6]: 1 µg/mL (≈ 0.727 µM)
MIC Staphylococcus aureus (GC 4542) [5]: 1 µg/mL (≈ 0.727 µM)
MIC Staphylococcus aureus (GC 4542) [5, 6]: 1 µg/mL (≈ 0.727 µM)
MIC Staphylococcus aureus-SMITH (GC 4543) ([5]; 18 hours at 35° C.): 1 µg/mL (≈ 0.727 µM)
MIC Staphylococcus aureus-SMITH (GC 4543) [5, 6]: 1 µg/mL (≈ 0.727 µM)
MIC Staphylococcus aureus (GC 4544) [5]: 2 µg/mL (≈ 1.45 µM)
MIC Staphylococcus aureus (GC 4544) [5, 6]: 2 µg/mL (≈ 1.45 µM)
MIC Staphylococcus aureus (GC 4545) [5]: 1 µg/mL (≈ 0.727 µM)
MIC Staphylococcus aureus (GC 4545) [5, 6]: 1 µg/mL (≈ 0.727 µM)
MIC Staphylococcus haemolyticus (GC 4546) [5]: 1 µg/mL (≈ 0.727 µM)
MIC Staphylococcus haemolyticus (GC 4546) [5, 6]: 1 µg/mL (≈ 0.727 µM)
MIC Coagulase Negative Staphylococcus (GC 4547) [5]: 1 µg/mL (≈ 0.727 µM)
MIC Coagulase Negative Staphylococcus (GC 4547) [5, 6]: 1 µg/mL (≈ 0.727 µM)
MIC Coagulase Negative Staphylococcus (GC 4548) [5]: 1 µg/mL (≈ 0.727 µM)
MIC Coagulase Negative Staphylococcus (GC 4548) [5, 6]: 1 µg/mL (≈ 0.727 µM)
MIC Coagulase Negative Staphylococcus (GC 4549) [5]: 1 µg/mL (≈ 0.727 µM)
MIC Coagulase Negative Staphylococcus (GC 4549) [5, 6]: 1 µg/mL (≈ 0.727 µM)
MIC Coagulase Negative Staphylococcus (GC 4551) [5]: 2 µg/mL (≈ 1.45 µM)
MIC Coagulase Negative Staphylococcus (GC 4551) [5, 6]: 2 µg/mL (≈ 1.45 µM)
MIC Coagulase Negative Staphylococcus (GC 6257) [5]: 0.5 µg/mL (≈ 0.364 µM)
MIC Coagulase Negative Staphylococcus (GC 6257) [5, 6]: 0.5 µg/mL (≈ 0.364 µM)
